From paper PMC10674535, “Development and Evaluation of a Self-Nanoemulsifying Drug Delivery System for Sinapic Acid with Improved Antiviral Efficacy against SARS-CoV-2” (Pharmaceutics, 2023) come the findings set out here.

Data set [1] addresses T1, 3CL Protease, tagged (SARS-CoV-2) (Mpro) (Severe acute respiratory syndrome coronavirus 2, UniProt P0DTD1).
T1 construct: 3CL Protease, tagged (SARS-CoV-2) Assay Kit; unspecified tag (printed only as 'tagged'); purchased BPS Bioscience, Inc. 79955-1
Nature of the data set: Mpro enzyme assay (3CL Protease FRET assay kit). Type of data set: biochemical. The note with it: excitation 360 nm, emission 460 nm, read-out: IC50, in vitro Mpro inhibitory activity.
Text: The in vitro FRET assay was monitored at an emission wavelength of 460 nm with an excitation at 360 nm using a Flx800 fluorescence spectrophotometer (BioTek Instruments, Winooski, VT, USA).

A short description of data set [2]: Equilibrium (saturated) solubility of SA in oils, surfactants and cosurfactants (isothermal method). Type of data set: physicochemical. The note with it: room temperature; for solubility at 3 days: read-out: Saturated solubility of sinapic acid; for Saturated solubility of sinapic acid: 3 days, listed as SA. From the text:
The equilibrium solubility of SA was studied in various oils, surfactants, and cosurfactants. Oils of different saturation degrees (medium- or long-chain triglycerides) were utilized to create an SNE to test their solubilization and nano-emulsification ability. The oil with the highest ability to solubilize SA was chosen due to its significant impact on drug solubilization ability and absorption. The tested oils included Labrafil, Capryol-90, Labrafac, olive oil, anise oil, almond oil, soybean oil, and corn oil. The screened surfactants were hydrophilic non-ionic surfactants (Cremophor El, Tween 20, and Tween 80); they have high HLB values and low oral toxicity. Labrasol, Transcutol, PEG 400, and propylene glycol were the screened cosurfactants. An isothermal method previously reported in the literature was utilized for the solubility determination. In brief, 300 mg of SA was added to 1 mL of each component in screw-capped glass vials and mixed using a vortex mixer. The mixtures were then transferred to a thermodynamic water bath shaker (JULABO™, Julabo Labortechnik GMBH, Seelbach, Germany) for continuous shaking at a speed of 100 rpm at room temperature for three days, followed by centrifugation at 4000 rpm for 25 min. SA concentration was measured spectrophotometrically at 322 nm after the supernatant was diluted with methanol using a magnetic stirrer at 500 rpm for 2 min at room temperature. The results of this study provide important insights into the solubility of SA in various oils, surfactants, and cosurfactants, which is crucial for the formulation of SA in a self-nanoemulsifying dosage form.

Data set [3] can be described thus: in vitro. To be noted: African green monkey.
Data set [4] concerns SARS-CoV-2 (hCoV-19/Egypt/NRC-3/2020 isolate). Nature of the data set: microbe, parasite or virus in culture. Type of data set: cell-based. To be noted: Severe acute respiratory syndrome coronavirus 2, Vero C1008, 48 h, read-out: IC50, in vitro antiviral activity against SARS-CoV-2.

Molecules are shown by their SMILES. Values after ≈ are worked out from the molar mass of the structure shown. Read-outs that look alike come from different tables or passages of the source.

For the compound `COc1cc(/C=C/C(=O)O)cc(OC)c1O` [Sinapic acid], the IC50 amounted to 6.74 ± 0.95 µM in data set [1] and 2.53 ± 0.065 µg/mL (≈ 0.0113 mM) in data set [4]. In addition, the solubility at 3 days in data set [2] (Capryol 90 (oil), oil or lipid, thermodynamic from solid, in Capryol 90 (oil)) amounted to 22.5 mg/mL (≈ 100 mM); in data set [2] (Cremophore El (surfactant), thermodynamic from solid, in Cremophore El (surfactant)) it was 138 mg/mL (≈ 617 mM); in data set [2] (Labrafac (oil), oil or lipid, thermodynamic from solid, in Labrafac (oil)) it was 14.3 mg/mL (≈ 63.9 mM); in data set [2] (Labrafil (oil), in Labrafil (oil)), 30 mg/mL (≈ 134 mM); in data set [2] (Labrafil (oil), oil or lipid, thermodynamic from solid, in Labrafil (oil)), 30 mg/mL (≈ 134 mM); in data set [2] (Labrasol, thermodynamic from solid, in Labrasol), 60.4 mg/mL (≈ 269 mM). Besides, the solubility at 3 days in data set [2] (PEG 400 (co-surfactant), organic solvent or mixture, thermodynamic from solid, in PEG 400 (co-surfactant)) worked out at 102 mg/mL (≈ 455 mM); in data set [2] (Transcutol (co-surfactant), organic solvent or mixture, thermodynamic from solid, in Transcutol (co-surfactant)), 193 mg/mL (≈ 860 mM); in data set [2] (Tween 20 (surfactant), thermodynamic from solid, in Tween 20 (surfactant)), 123 mg/mL (≈ 550 mM); in data set [2] (Tween 80 (surfactant), thermodynamic from solid, in Tween 80 (surfactant)), 78.8 mg/mL (≈ 352 mM); in data set [2] (almond oil, oil or lipid, thermodynamic from solid, in almond oil), 1.71 mg/mL (≈ 7.63 mM); in data set [2] (anise oil, oil or lipid, thermodynamic from solid, in anise oil), 5.02 mg/mL (≈ 22.4 mM). The solubility at 3 days in data set [2] (corn oil, oil or lipid, thermodynamic from solid, in corn oil) worked out at 0.81 mg/mL (≈ 3.61 mM); in data set [2] (olive oil, oil or lipid, thermodynamic from solid, in olive oil), 7.11 mg/mL (≈ 31.7 mM); in data set [2] (propylene glycol (co-surfactant), organic solvent or mixture, thermodynamic from solid, in propylene glycol (co-surfactant)), 58.4 mg/mL (≈ 260 mM); in data set [2] (soybean oil, oil or lipid, thermodynamic from solid, in soybean oil), 1.25 mg/mL (≈ 5.58 mM). Moreover, the “Saturated solubility of sinapic acid” value in data set [2] (in Cremophore El (surfactant)) was 138 mg/mL; in data set [2] (in Labrasol), 60 mg/mL; in data set [2] (in PEG 400 (co-surfactant)) it was 102 mg/mL; in data set [2] (in Transcutol (co-surfactant)), 192 mg/mL; in data set [2] (in Tween 80 (surfactant)) it was 78 mg/mL; in data set [2] (in propylene glycol (co-surfactant)) it was 58 mg/mL. The CC50 in data set [3] amounted to 196 ± 15.1 µg/mL (≈ 0.875 mM).

Turning to `CCC(CC)COC(=O)[C@H](C)N[P@](=O)(OC[C@H]1O[C@@](C#N)(c2ccc3c(N)ncnn23)[C@H](O)[C@@H]1O)Oc1ccccc1` [remdesivir, reference compound], in data set [4] (Vero E6 cells, MOI 0.5, viral RNA by real-time PCR after 2 days, n = 3), the IC50 worked out at 0.036 ± 0.002 µg/mL (≈ 5.97e-05 mM).
